Tested on: maize WUS2 promoter
Assay: Maize WUS2 promoter tDT report construct co-bombardment
Assay type: cell-based
Text: Homeobox domain transcriptional factor WUSCHEL (WUS) plays an important role in establishing and maintaining of shoot meristem. To identify boost factors that promote endogenous WUS2 expression, the maize WUSCHEL 2 promoter report construct (pAMK-ZmWUS2-tDT-noT) (SEQ ID NO: 43; FIG. 13) was used to illustrate maize WUS2 promoter activity. The maize WUS2 promoter (pZmWUS2) drove expression of the tDT report gene in this report construct (FIG. 13). The WUS2 promoter report construct was co-bombarded with boost factors individually in maize immature embryos and leaf segments.
Fresh leaf segments of 1-2 cm in length were prepared from the in vitro-cultured maize A188 seedling of 10-14 days old, and placed on the Osmotic medium with abaxial side up for 4 hours. For co-bombardment, two plasmids (100 ng of ZmWUS2 promoter report (FIG. 13) and 100 ng of boost construct, e.g. TaRKD4 (FIG. 5)) were premixed and coated onto 100 μg of gold particles size 0.4 μm. Immature embryo preparation, bombardment, and post-bombardment culturing were carried out as described in Example 1 and Example 2. Red fluorescence showing tDT expression was monitored using a fluorescent microscope started at 16 hours after bombardment.

[1] = A188 leaf segments, after bombardment

## wheat RKD4: wheat RKD4 boost gene, expression construct pABM-BdEF1-TaRKD4 (SEQ ID NO: 28)
[1]
  time at which tDT signal peaked: around 44 hours
  time at which tDT signal was detected: around 36 hours
Immature embryos and leaf segments
  activation of maize WUS2 genes: strongly activate
Immature embryos, 44 hours after bombardment, compared to WUS promoter reporter only
  tDT red fluorescent signals: extremely strong red fluorescent signals

From US20240417743A1, “METHODS FOR IMPROVING GENOME ENGINEERING AND REGENERATION IN PLANT” (KWS SAAT SE & Co. KGaA, priority 2018, published 2024)
